One data set relates to PC12 cells. Nature of the data set: PC12 cell survival under serum deprivation (CellTiter-Glo). Format: cell-based, rat. Conditions: 72 h serum-free; for minimal effective concentration: Rattus norvegicus, PC-12, read-out: PC12 cell proliferation (CellTiter-Glo ®) Concentration at which RLU increased >25% compared to medium control. The method, then: Each culture condition was performed in quadruplicate in each experiment and the mean values were calculated. The results represent mean±SEM of relative light unit values when compared to the mean values obtained in the presence of the medium alone. A total of 13 experiments were performed and the statistical significance was analyzed using GraphPad Prism software using ANOVA, followed by paired t-test. The symbol * indicates P-values <0.01.
PC12 cells were cultured in DMEM supplemented with 10% fetal calf serum and 5% horse serum. […] Cell viability was analyzed by CellTiter-Glo® reagent (Promega).
PC12 cells were cultured in DMEM supplemented with 10% fetal calf serum and 5% horse serum. […] Cell survival of the serum-starved cells was analyzed by CellTiter-Glo® reagent luminescence reading.
FIG. 2 illustrates neuroprotective effects of Compounds 1-5 when tested in PC12 cell protection assays. PC12 cells were subjected to serum deprivation as described under FIG. 1.
PC12 cells were cultured in DMEM supplemented with 10% fetal calf serum and 5% horse serum. […] Cell survival of the serum-starved cells was analyzed by CellTiter-Glo® reagent luminescence reading (relative light units, “RLU”). […] “NS” indicates RLU increased <25% when compounds were tested at 5 uM.
(ATP-based viability assays read luminescence as a measure of living cells.)

The test system of data set [1] is rat ventral mesencephalic dopaminergic neurons. Nature of the data set: Protection of primary dopaminergic neurons from 6-OHDA (THir neuron staining). Format: cell-based. Conditions: 6.25 uM 6-OHDA 40 min, FIG. 7. The method, then:
Dissociated embryonic D14 rat ventral mesencephalic cells were used.
Dopaminergic neurons play a key role in the pathogenesis of Parkinson's disease and compounds enhancing survival of these cells have significant therapeutic potential. Dissociated embryonic D14 rat ventral mesencephalic cells were used to test the potential of EPO mimetic compounds to protect primary dopaminergic neurons. […] The cells were plated in 48-well poly-D-lysine coated plates using a microisland technique. The microislands were seeded into dry plates in 10 uL aliquots of 3000 cells/uL and incubated at 37° C. for 1 h to allow for adhesion. […] On day 3, the medium was replaced with 6.25 uM 6-hydroxydopamine (6-OHDA, Sigma) for a 40 minute incubation. The toxin was then removed and the cells were cultured for an additional 2 days. On day 5, the cells were fixed, permeabilized and stained for tyrosine hydroxylase-immunoreactive (THir) neurons.

The subject of data set [2] is human CD34+ hematopoietic stem cells. Nature of the data set: Proliferation and differentiation of primary human CD34+ cells. Type of data set: cell-based. The procedure:
Compound 10 was tested at different concentrations for its ability to induce proliferation and differentiation of human CD34+ hematopoietic stem cells. Human CD34+ cells were purified by (FIG. 6A) immunomagnetic beads (>90% purity, purchased from Stem Cell Technologies) or (FIG. 6B) cell sorting (at Blood Systems Research Institute) and the cells were cultured in the presence of compounds for eight (FIG. 6A) or eleven (FIG. 6B) days. (FIG. 6A) The level of cell growth and survival was measured based on ATP levels (CellTiterGlo reagent), or (FIG. 6B) the expression level of CD235a was analyzed by flow cytometry as a marker for cell maturation. Cell survival was analyzed using the CellTiterGlo reagent to measure ATP levels as a marker of metabolically active cells that have not undergone apoptosis, and expression of CD235a as a marker of erythroid cell differentiation and as a specific marker for EPO-like erythropoietic activity.

Another data set concerns primary human neurons. Nature of the data set: Neuroprotection of primary human neurons against staurosporine. Type of data set: cell-based. The following applies: 47 days in culture, compound 24 h, then staurosporine 500 nM 24 h, FIG. 3B. The method, then: A) Primary rat cortical neurons were isolated from micro-surgically dissected regions of day 18 embryonic rat brain (Brain Bits, LLC, Springfield, Ill.) and cultured for 12 days in vitro. Then, Compounds 5-7 were added for 24 h. Next, NMDA (50 uM) was added and the cells were cultured for an additional 24 hours. Cells cultured without the insult were considered to represent 0% neuron death. The data represent mean±SEM of six replicate cultures and * indicates P value ≦0.05. B) Primary micro-dissected fetal brain tissue was obtained from a commercial source (Advanced Bioscience Resources, Inc., Alameda, Calif.). […] Staurosporine (500 nM) was added and the cells were cultured for an additional 24 hours. Cells cultured without the insult were considered to represent 0% neuron death. The data represent mean±SEM of six replicate cultures and * indicates P value ≦0.05.

For data set [3], the system named is frataxin. Nature of the data set: Frataxin protein levels in primary human fetal neurons (ELISA). The following applies: 28 days in culture, 24 h incubation, FIG. 4B. Format: cell-based. The method, then:
The effects of the compounds on frataxin protein levels in cells were analyzed. […] Embryonic mouse cell line P19 was differentiated into neuronal cells in the presence of retinoic acid and frataxin levels were measured (FIG. 4A). Frataxin levels were measured after 24 h by multi-species frataxin-ELISA (MitoSciences) and compared to total protein levels. The data represent mean±SEM. Primary human fetal neurons (28 days in culture) were also incubated for 24 h in the presence of the compounds, and human frataxin levels were measured by ELISA (MitoSciences) and compared to total protein levels (FIG. 4B). The data represent mean±SEM of triplicate measurements. Compounds were also tested for their effects on frataxin levels in cells derived from patients with FRDA. Cultures of patient peripheral blood mononuclear cells (PBMCs) were also used to test the EPO mimetic compounds for frataxin enhancement in frataxin-deficient cells. Compound 1 and Compounds 5-6 enhanced frataxin levels in these patient cells at concentration 1 uM or lower.
On the technique in general: ELISA stands for enzyme-linked immunosorbent assay.

In data set [4] the target is T1, EPO receptor (Homo sapiens, UniProt P19235).
T1 construct: endogenous in cells; host or cells: primary human fetal neural cells cultured from micro-dissected fetal brain tissue (Advanced Bioscience Resources, Inc.)
T1 sequence (P19235 25-508): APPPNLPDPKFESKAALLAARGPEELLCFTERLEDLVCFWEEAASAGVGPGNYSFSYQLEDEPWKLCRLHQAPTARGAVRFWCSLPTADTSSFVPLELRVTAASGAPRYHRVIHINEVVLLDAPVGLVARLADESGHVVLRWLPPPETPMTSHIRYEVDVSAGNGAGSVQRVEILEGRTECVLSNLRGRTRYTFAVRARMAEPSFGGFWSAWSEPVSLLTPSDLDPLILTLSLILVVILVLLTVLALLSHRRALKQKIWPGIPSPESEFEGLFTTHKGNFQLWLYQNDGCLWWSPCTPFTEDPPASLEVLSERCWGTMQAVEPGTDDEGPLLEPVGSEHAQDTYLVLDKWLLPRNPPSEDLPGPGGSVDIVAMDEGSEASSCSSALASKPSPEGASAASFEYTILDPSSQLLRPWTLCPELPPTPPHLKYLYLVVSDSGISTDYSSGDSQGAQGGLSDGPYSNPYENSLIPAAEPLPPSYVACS
Nature of the data set: EPO receptor phosphorylation in primary human fetal neural cells (phospho-EPOR ELISA). Conditions: FIG. 5A; for EPO receptor phosphorylation: 10 min incubation; for level of receptor activation compared with recombinant human EPO: recombinant human EPO 10 IU/ml. Format: cell-based. The procedure:
(§1) Primary micro-dissected fetal brain tissue was obtained from a commercial source (Advanced Bioscience Resources, Inc., Alameda, Calif.). Cultured primary human fetal neural cells (3 h, 1 day, 17 days, or 26 days in culture) were incubated with Compound 5, Compound 6, or controls for 10 min (FIG. 5A). Phospho-EPOR was detected by ELISA (R&D Systems). […] Human erythropoietic cell line TF-1 was cultured for 10 min in the presence of Compound 5, Compound 6, or the controls, and phospho-EPOR was detected by ELISA (R&D Systems). The data represent mean±SEM of triplicate cultures. […] The receptor activation results were consistent with functional cell based assays using primary human CD34+ bone marrow progenitor cells and erythroleukemia cell line TF-1.

For data set [5], the system named is EPO receptor. Nature of the data set: EPO receptor phosphorylation in erythroleukemia cell line TF-1 (phospho-EPOR ELISA). Format: cell-based, human. Conditions: TF-1, 10 min, FIG. 5B. The procedure:
as §1

The test system of another data set is TF-1 cells. Briefly: Proliferation of TF-1 cells. Format: cell-based, human. Conditions: at concentrations that provided significant neuroprotective effects.
For data set [6], the system named is rats. Briefly: Kidney and CNS protection against DMA + Cremophor EL toxicity in rats. Type of data set: in vivo, rat. Conditions: DMA + CrEL 2.5 mL/kg each IP. The procedure: High-dose N,N-dimethylacetamide (DMA)+Cremophor EL (CrEL) (2.5 mL/kg each, IP) was used to induce acute CNS and organ toxicity, and the potential of Compound 5 to protect the rats was studied.

For data set [7], the system named is rats. The following applies: rat model of MCA occlusion (Brines et al. 2000); cited from earlier work.
The subject of data set [8] is frataxin. Conditions: 8 FRDA patients, open label pilot trial (Boesch et al. 2008); cited from earlier work.
Data set [9] concerns frataxin. The following applies: patients with chronic kidney disease, rhEPO infusion for anemia (Sturm et al. 2005); cited from earlier work.
For data set [10] the following is noted: human, intravenous administration (Xenocostas et al. 2005); cited from earlier work.
The mark [11] stands for this setting: NS = RLU increased <25% at 5 uM.

This is an account of results in patent US9163027B2, “Substituted triazolo-pyrimidine compounds for modulating cell proliferation differentiation and survival” (STATegics, Inc., priority 2012, dated 2015).

Take `Cc1cc(C)n2nc(SCCOc3ccc(Cl)cc3)nc2n1` [Example 1, 2-{[2-(4-chlorophenoxy)ethyl]sulfanyl}-5,7-dimethyl-[1,2,4]triazolo[1,5-a]pyrimidine]: the “protection of PC12 cells (cell viability)” value in the data set with PC12 cells (1 uM, FIG. 1, at least comparable to rhEPO) was “significant effect”. Further, the “level of protection of PC12 cells compared with rhEPO” value with PC12 cells (5 uM vs rhEPO 10 U/ml, FIG. 1) is given as “higher level of protection than rhEPO”. For the same compound, the minimal effective concentration in the data set with PC12 cells (setting [11]) was under 5 µM. In addition, the “protection of dopaminergic neurons from 6-OHDA toxicity” value in [1] (1 uM) was “significantly protected”.

With `COc1ccc(NC(=O)CSc2nc3nc(C)cc(C)n3n2)cc1` [Example 10, 2-({5,7-dimethyl-[1,2,4]triazolo[1,5-a]pyrimidin-2-yl}sulfanyl)-N-(4-methoxyphenyl)acetamide], in the data set with PC12 cells (setting [11]), the “PC12 cell proliferation (CellTiter-Glo ®) Concentration at which RLU increased >25% compared to medium control” value was “NS (RLU increased <25% when compounds were tested at 5 uM)”. Further, the “CD34+ progenitor cell proliferation (ATP levels, CellTiterGlo)” value in [2] (eight days culture, FIG. 6A) is “dose-dependent induction of CD34+ progenitor cell proliferation”. Moreover, the “differentiation into erythroid cells (CD235a expression, flow cytometry)” value in data set [2] (eleven days culture, FIG. 6B) is recorded as “differentiation into erythroid cells expressing CD235a”.

With `Cc1cc(C)n2nc(OCCOc3ccc(Cl)cc3)nc2n1` [Example 11, 2-[2-(4-chlorophenoxy)ethoxy]-5,7-dimethyl-[1,2,4]triazolo[1,5-a]pyrimidine], in the data set with PC12 cells (setting [11]), the minimal effective concentration was under 5 µM. Besides, the “neuroprotective effect (neuron death)” value with primary human neurons is on record as “Significant protective effects”. In addition, the frataxin protein levels result with frataxin [3] is “increased frataxin protein levels”. At EPO receptor [4], the EPO receptor phosphorylation result is on record as “increased EPO receptor phosphorylation in a dose-dependent manner” and the “level of receptor activation compared with recombinant human EPO” value was “comparable to that induced by recombinant human EPO”. For the same compound, the “EPO receptor activation (phospho-EPOR)” value in the data set on EPO receptor [5] is on record as “did not activate EPO receptor”. Besides, the “proliferation of TF-1 cells” value in the data set with TF-1 cells is listed as “did not induce proliferation”. In the data set on rats [6], the “CNS toxicity of DMA/CrEL” value is recorded as “prevented the CNS toxicity” and the “response of the rats to formalin injection” value is given as “normalized the response”. For the same compound, in the data set with rats [6] (FIG. 8), the “kidney-protective effects measured by hypoproteinemia in serum” value was “Kidney-protective effects”.

With `Cc1cc(C)n2nc(OCCN(CCO)c3ccccc3)nc2n1` [Example 13, 2-{[2-({5,7-Dimethyl-[1,2,4]triazolo[1,5-a]pyrimidin-2-yl}oxy)ethyl](phenyl)amino}ethan-1-ol], in the data set with PC12 cells (setting [11]), the minimal effective concentration is under 5 µM. The “neuroprotective effect (neuron death)” value in the data set on primary human neurons is on record as “Significant protective effects”. Also, in the data set with frataxin [3], the frataxin protein levels result was “increased frataxin protein levels”. At EPO receptor [4], the EPO receptor phosphorylation entry is “increased EPO receptor phosphorylation in a dose-dependent manner” and the “level of receptor activation compared with recombinant human EPO” value is reported as “comparable to that induced by recombinant human EPO”. Moreover, the “EPO receptor activation (phospho-EPOR)” value in the data set with EPO receptor [5] was “did not activate EPO receptor”. In the data set on TF-1 cells, the “proliferation of TF-1 cells” value is reported as “did not induce proliferation”.

Consider `Cc1cc(C)n2nc(SCCc3c[nH]c4ccccc34)nc2n1` [Example 34, 3-[2-({5,7-dimethyl-[1,2,4]triazolo[1,5-a]pyrimidin-2-yl}sulfanyl)ethyl]-1H-indole], for which the minimal effective concentration in the data set on PC12 cells (setting [11]) was under 5 µM.

`Cc1cc(C)n2nc(OCCSc3ccc(Cl)cc3)nc2n1` [Example 35, 2-{2-[(4-chlorophenyl)sulfanyl]ethoxy}-5,7-dimethyl-[1,2,4]triazolo[1,5-a]pyrimidine]: the minimal effective concentration with PC12 cells (setting [11]) was under 5 µM.

With “rhEPO: recombinant human (rh)EPO, erythropoietin; positive control”, the “EPO receptor activation (phospho-EPOR)” value in the data set on EPO receptor [5] is “effective”. The “protection of dopaminergic neurons from 6-OHDA toxicity” value in data set [1] (10 IU/ml) is listed as “significantly protected”. The “reduction of infarct volume” value with rats [7] is 50-75%. Also, the “increase in frataxin in lymphocytes” value with frataxin [8] is given as 24%. For the same compound, the “increase in frataxin levels in peripheral blood mononuclear cells” value in the data set on frataxin [9] is reported as 2-3 fold. The “concentration in cerebrospinal fluid lower than in circulation” value in data set [10] is given as “more than 1000 fold”.
